Assay results reported in ChEMBL document CHEMBL1135261, “Antitumor agents. Part 3: synthesis and cytotoxicity of new trans-stilbene benzenesulfonamide derivatives” (2002).

How the values were obtained:
Details in all cases: Homo sapiens
SR = assay: Tested for the cytotoxicity against the Leukemia cell line SR, growth inhibition by 50% is reported; format: functional
HCT-15 = assay: Tested for the cytotoxicity against the colon cancer cell line HCT15, growth inhibition by 50% is reported; format: functional
HT-29 = assay: Tested for the cytotoxicity against the colon cancer cell line HT29, growth inhibition by 50% is reported; format: functional
HL-60 = assay: Tested for the cytotoxicity against the Leukemia cell line HL60, growth inhibition by 50% is reported; format: functional
UACC-62 = assay: Tested for the cytotoxicity against the Melanoma cell line UACC-62, growth inhibition by 50% is reported; format: functional
IGROV-1 = assay: Tested for the cytotoxicity against the Ovarian cancer cell line IGROV1, growth inhibition by 50% is reported; format: functional
NCI-H23 = assay: Tested for the cytotoxicity against the Non-small cell lung cancer cell line NCI-H23, growth inhibition by 50% is reported
A549 = assay: Tested for the cytotoxicity against the Non-small cell lung cancer cell line A-549, growth inhibition by 50% is reported; format: functional
CAKI-1 = assay: Tested for the cytotoxicity against the Renal cancer cell line CAKI-1, growth inhibition by 50% is reported; format: functional
MDA-MB-435 = assay: Tested for the cytotoxicity against the Breast cancer cell line MDAMB435, growth inhibition by 50% is reported; format: functional
KM12 = assay: Tested for the cytotoxicity against the colon cancer cell line KM-12, growth inhibition by 50% is reported; format: functional
U-251 = assay: Tested for the cytotoxicity against the CNS cancer cell line U251,growth inhibition by 50% is reported; format: functional
CCRF-CEM = assay: Tested for the cytotoxicity against the Leukemia cell line CCRF-CEM, growth inhibition by 50% is reported; format: functional
HOP-92 = assay: Tested for the cytotoxicity against the Non-small cell lung cancer cell line HOP-92, growth inhibition by 50% is reported; format: functional
BT-549 = assay: Tested for the cytotoxicity against the Breast cancer cell line BT-549, growth inhibition by 50% is reported; format: functional
SF-268 = assay: Tested for the cytotoxicity against the CNS cancer cell line SF-268, growth inhibition by 50% is reported; format: functional
Hs-578T = assay: Tested for the cytotoxicity against the Breast cancer cell line HS-578T, growth inhibition by 50% is reported; format: functional
ACHN = assay: Tested for the cytotoxicity against the Renal cancer cell line ACHN, growth inhibition by 50% is reported; format: functional
MOLT-4 = assay: Tested for the cytotoxicity against the Leukemia cell line MOLT-4, growth inhibition by 50% is reported; format: functional
K562 = assay: Tested for the cytotoxicity against the Leukemia cell line K-562, growth inhibition by 50% is reported; format: functional
OVCAR-8 = assay: Tested for the cytotoxicity against the Ovarian cancer cell line OVCAR-8, growth inhibition by 50% is reported; format: functional
RPMI-8226 = assay: Tested for the cytotoxicity against the Leukemia cell line RPMI8226, growth inhibition by 50% is reported; format: functional
SF-539 = assay: Tested for the cytotoxicity against the CNS cancer cell line SF-539, growth inhibition by 50% is reported; format: functional
NCI-H226 = assay: Tested for the cytotoxicity against the Non-small cell lung cancer cell line NCI-H226, growth inhibition by 50% is reported; format: functional
OVCAR-4 = assay: Tested for the cytotoxicity against the Ovarian cancer cell line OVCAR-4, growth inhibition by 50% is reported; format: functional
LOX IMVI = assay: Tested for the cytotoxicity against the Melanoma cell line LOXIMVI, growth inhibition by 50% is reported; format: functional
NCI-H522 = assay: Tested for the cytotoxicity against the Non-small cell lung cancer cell line NCI-H522 growth inhibition by 50% is reported; format: functional

SMILES	GI50 (SR) [µM]	GI50 (HCT-15) [µM]	GI50 (HT-29) [µM]	GI50 (HL-60) [µM]	GI50 (IGROV-1) [µM]	GI50 (NCI-H23) [µM]	GI50 (A549) [µM]	GI50 (CAKI-1) [µM]	GI50 (MDA-MB-435) [µM]	GI50 (KM12) [µM]	GI50 (U-251) [µM]	GI50 (CCRF-CEM) [µM]	GI50 (HOP-92) [µM]	GI50 (SF-268) [µM]	GI50 (Hs-578T) [µM]	GI50 (ACHN) [µM]	GI50 (MOLT-4) [µM]	GI50 (K562) [µM]	GI50 (OVCAR-8) [µM]	GI50 (RPMI-8226) [µM]	also measured
COc1cc(/C=C/c2ccc(S(N)(=O)=O)cc2)cc(OC)c1	19.7	17.4	16.2	18.6	23.1	22.5	20.7	19	18.7	20.8	17.1	19.9	15	28.3	20.1	23.5	18.6	28.7	37.9	14.3	GI50 (UACC-62): 15.4 µM; GI50 (BT-549): 10.7 µM; GI50 (SF-539): 18.8 µM; GI50 (NCI-H226): 12.3 µM; GI50 (OVCAR-4): 21.2 µM; GI50 (LOX IMVI): 18.2 µM
COc1cccc(/C=C/c2ccc(S(N)(=O)=O)cc2)c1	5.21	3.6	0.554	10.4	2.5	21	11	14.7	17.4	12.2	5.54	13.6	3.29	17.1	25.5	7.12	26.8	20.6	31.6	3.81	GI50 (UACC-62): 14 µM; GI50 (BT-549): 6.38 µM; GI50 (SF-539): 16.8 µM; GI50 (NCI-H226): 2.91 µM; GI50 (OVCAR-4): 25 µM; GI50 (LOX IMVI): 30.7 µM
NS(=O)(=O)c1ccc(/C=C/c2ccc(O)c(O)c2)cc1	12.7	13.9	35.4	16.3	4.49	25.9	22.3	29.1	16.8	18.2	16.3	4.79	15.8	18.2	25.6	20.4	12.8	35.3	16.7	9.16	GI50 (UACC-62): 23.3 µM; GI50 (NCI-H522): 2.25 µM; GI50 (BT-549): 4.13 µM; GI50 (SF-539): 14.2 µM; GI50 (NCI-H226): 14 µM; GI50 (OVCAR-4): 11.6 µM; GI50 (LOX IMVI): 29.9 µM
NS(=O)(=O)c1ccc(/C=C/c2cccc(O)c2)cc1	17.8	22.8	43.3	41.4	30.2	46.1	19.8	50.2	25.8	35.4	21.1	16.1	17.4	65.6	61	25.8	20	43.4	25.2	18.9	GI50 (UACC-62): 18.6 µM; GI50 (NCI-H522): 12.2 µM; GI50 (SF-539): 36.7 µM; GI50 (NCI-H226): 25.8 µM; GI50 (OVCAR-4): 27.8 µM; GI50 (LOX IMVI): 43 µM
NS(=O)(=O)c1ccc(/C=C/c2ccc(F)cc2)cc1	10.5	9.98	29.4	37.3	20.9	45.1	8.93	36.3	27	16.3	7.93	62	33.2	20.5	23.7	2.97	12.9	14.9	15.2	42.3	GI50 (NCI-H522): 4.81 µM; GI50 (BT-549): 0.205 µM; GI50 (SF-539): 29.1 µM; GI50 (NCI-H226): 7.97 µM; GI50 (OVCAR-4): 34.4 µM; GI50 (LOX IMVI): 26.7 µM
NS(=O)(=O)c1ccc(/C=C/c2ccc(O)cc2)cc1	4.68	24.6	17.8	4.35	20.3	16.9	13.9	5.59	20.3	11.1	15	4.5	31.5	31.5	28.9	2.28	22.6	24.9	4.81	7.09	GI50 (UACC-62): 3.4 µM; GI50 (NCI-H522): 13.8 µM; GI50 (SF-539): 7.4 µM; GI50 (NCI-H226): 11.1 µM; GI50 (OVCAR-4): 36.9 µM; GI50 (LOX IMVI): 19.1 µM
CN(C)c1ccc(/C=C/c2ccc(S(N)(=O)=O)cc2)cc1	8.58	17.1	30.8	> 100	13.4	14.2	10.1	50.3	7.63	8.28	11.2	46	16.6	7.16	3.03	13.6	> 100	> 100	4.95	11.6	GI50 (NCI-H522): 6.88 µM; GI50 (BT-549): 2.14 µM; GI50 (SF-539): 11.7 µM; GI50 (NCI-H226): 12.1 µM; GI50 (OVCAR-4): 3.34 µM; GI50 (LOX IMVI): 18.7 µM
